Source: a melting point compilation (Tetko et al.; mined from patent text by program, amines drawn as free bases though some values may be those of a salt)

SMILES | melting point [°C]
Cc1cc(CCC(=O)OC(C)(C)C)cc(-c2nc(=O)c3ccc(Cl)cc3s2)n1 | 186 to 188
CCOC(=O)CCCOc1ccc2c(c1)CN1CC(=O)NC1=N2 | 243 to 244
Cc1cc(Oc2ncc(C(F)(F)F)cc2Cl)nn1C(=O)Nc1ccc(C(F)(F)F)cc1 | 164 to 167
CC(=O)C(=Cc1cccc(C#N)c1)C(C)=O | 63 to 64
Cc1oc(C(=O)NCc2ccc3c(c2)OCO3)c(C)c1-c1nc2ccc(C(=O)c3ccccc3)cc2[nH]1 | 122 to 125
CN(C)C(=O)c1cc(-c2nccs2)[nH]c1C(CC1CCOCC1)c1ccc(S(=O)(=O)C2CC2)cc1 (stereo not given) | 180 to 182
CC(C)(C)OC(=O)NCC1=CC(c2ccccc2)Cc2c1ccc(O)c2O (stereo not given) | 175 to 177
CN(C)Cc1ccc2c(c1)Cc1c(-c3cccs3)n[nH]c1-2 | 204 to 206
COc1cc(CBr)c(OC)cc1/C=C/c1cc(OC)c(CBr)cc1OC | 165 to 167
CN(CCc1ccc(O)c(O)c1)C(=O)OCc1ccccc1 | 105 to 106
O=C1NCCc2c1c1cccc3c1n2CCO3 | 298 to 300
N#Cc1ccc(Nn2cnnc2)cc1-c1ccc(C(F)(F)F)cc1 | 140 to 143
COc1ccc(CCNCC(O)c2ccccc2OC)cc1OC (stereo not given) | 88
COc1ccc(-c2nnc3c4ccccc4c(Nc4ccc(NC(=O)c5ccccn5)cc4)nn23)cc1 | 301 to 305
Nc1nc(N)nc(-c2ccc(-c3ccccc3)s2)n1 | > 250
CC1(C)[C@@H](CN2CC[C@@H](O)C2)CC[C@@]1(C)NCC(=O)N1C[C@@H](F)C[C@H]1C#N | 130 to 135
Brc1ccc(C2(c3ccc(Br)cc3)OCCO2)cc1 | 103 to 104
COC(=O)c1nc(-c2ccc(CF)cc2)cc(N)c1Cl | 95 to 97
CS(=O)(=O)c1ncc(-c2ccccc2)c(C(F)(F)F)n1 | 110 to 112
Oc1c(Cc2ccccc2)nc(Cc2ccccc2)c2c1COC2 | 204 to 205
CCCCOC(=O)N(C)C(CNC(=O)CC1CC(c2ccc(C#N)cc2)=NO1)C(=O)O (stereo not given) | 154 to 156
NC(=O)c1ccc(-c2n[nH]c3c2Cc2ccccc2-3)cc1 | 290 to 293
CCCCNC(=O)NCCCn1c(CCOC)nc2c(N)nc3ccccc3c21 | 159 to 160
COc1cccc(SCCC(=O)O)c1 | 39 to 42
C[C@@H](Cc1ccc(OCC(=O)O)cc1)NS(=O)(=O)c1ccccc1 | 89 to 91

SMILES | melting point [°C]
Nc1nc(Cl)cc(NCc2ccccc2F)n1 | 130 to 133
CC(C)(C)c1ccc(CCCCN2CCC(C3(O)c4ccccc4CCc4ccccc43)CC2)cc1 | 99 to 101
CC(C(O)C(C)(C)Cc1ccc(OC(F)(F)F)cc1)n1ncnc1S (stereo not given) | 125 to 126
CCOC(=O)c1ccc(/C=C/c2c(C)cc3c(c2OC)C(C)(C)CCC3(C)C)cc1 | 123
CCOC(=O)C12CCNC(=O)CC1COC2=O (stereo not given) | 137 to 138
CN(C)C(=O)N(C)c1nnc(S(=O)(=O)N(C)C)s1 | 101 to 103
ON=Cc1cc(F)ccc1Cl | 133 to 134
COc1cc(C(=O)CCCC2CCCCC2)c(OC)cc1C | 53.5 to 54.5
COc1ccc(Cl)cc1[C@]1(F)C(=O)N(C(=O)N[C@H](C(=O)O)C(C)C)c2cc(C(F)(F)F)ccc21 | 100 to 104
CC(C)(C)OC(=O)N1CCC(C2=C(C#N)C(c3cccc4nonc34)c3c[nH]nc3N2)CC1 (stereo not given) | 226
Cc1cc(C(=S)N(C)C)ncc1C(c1cc(F)ccc1F)S(=O)(=O)c1ccc(F)cc1 (stereo not given) | 161 to 164
O=C(O)C(Br)c1ccc(Cl)cc1 (stereo not given) | 92 to 93
COc1ccc(-n2nccc2-c2nn(-c3cccc(C(F)(F)F)c3)ccc2=O)cc1 | 173 to 174
S=C(NCc1cccnc1)c1[nH]c2ccc(Cl)cc2c1-c1ccccc1 | 240 to 241
O=C(O)c1cc(Oc2ccc(Br)cc2)cc(C(=O)O)c1 | 310 to 320
CC(C)c1cc(-c2ccc(F)c3ccc(F)cc23)nc(N)n1 | 103 to 105
CC1(C)CCSc2ccc(Br)cc21 | 51
COC(=O)C(=CC(=CN(C)C)c1cc(OCc2ccccc2)ccc1[N+](=O)[O-])[N+](=O)[O-] | 158 to 165
O=C1COc2cc(NC(=O)C(=O)N3CCC(Oc4ccccc4)CC3)ccc2N1 | 196 to 199
COc1cc(C=CC(=O)c2cccc(O)c2)cc(OC)c1 | 126 to 127
NS(=O)(=O)C1=CC2=C(OCCO)CCSC2S1 (stereo not given) | 110 to 113
O=C(O)CCCCC=Cc1cccc(Cc2ccccc2)c1 | 68
Cc1nnc2ccc(-c3cccc(N4CCCC4=O)c3)nn12 | 235 to 237
CCOC(=O)CC[C@H](NC(=O)c1csc(CCCc2cc3c(=O)[nH]c(N)nc3[nH]2)c1)C(=O)OCC | 81 to 82
COC(=O)c1cn(C2=CC(C)(C)Oc3ccc(C#N)cc32)c2ccccc12 | 177 to 180

SMILES | melting point [°C]
CC(c1ccc(C#Cc2ccccc2)cc1)N(O)C(N)=O (stereo not given) | 144 to 146
CP(C)(=O)C(CC(=O)O)C(=O)O (stereo not given) | 174 to 177
CC#CCOc1cc(Oc2ccc(C#N)cc2)ncn1 | 162
CCCCOCCOc1ccc(-c2ccc(N3CCCC3)c(C(C)=CC(=O)OCC)c2)cc1 | 81 to 82
Nc1nc2ccc(OCc3c(F)cccc3F)cc2s1 | 178
CCOc1ccc(Cc2cc([C@@H]3O[C@H](SC)[C@@H](O)[C@H](O)[C@H]3O)ccc2Cl)cc1 | 123
CC1CC2(C)C(CCC3C4CCC(C5(C)OCCO5)C4(C)CC(=O)C32)CC1=O (stereo not given) | 168 to 169
C[C@@H]1CN(CCNC(=S)N(C)C)CC[C@@H]1Nc1nc2ccccc2n1Cc1ccc(F)cc1 (relative stereo) | 127
Oc1nsc2c1CCCC2 | 157 to 158
Cn1ccc(S(N)(=O)=O)n1 | 156 to 158
O=C(O)COc1nnc(-c2ccc3c(c2)CCO3)o1 | 151 to 153
COc1cc2cnn(CCO)c(=O)c2cc1OC | 174 to 176
CN(C)C=Nc1ccc2nnc(-c3ccc([N+](=O)[O-])o3)n2n1 | 291 to 296
O=C1N(c2c(Cl)cccc2Cl)Cc2cnc(Nc3ccccc3)nc2N1c1cccc(CCO)c1 | > 250
Cc1cc(NC(=O)CCC(=O)O)ccc1-n1c(C)nc2ccccc2c1=O | 228 to 230
CN=C(N)Nc1nc(-c2cccc(C(=O)NC)c2)cs1 | 111 to 113
CCCCCCCCCCc1cc(C=O)on1 | 46 to 48
CC(=O)N(CC(=O)O)C[C@H]1O[C@H](c2ccccc2Cl)c2cc(Cl)ccc2N(Cc2ccccc2)C1=O (relative stereo) | 143 to 145
CN1C(=O)CN(C(=O)N2CC(=O)N(C)c3ccc(Cl)cc3C2c2ccccc2)C(c2ccccc2)c2cc(Cl)ccc21 (stereo not given) | 263 to 266
C[C@H]1C(=O)C[C@@H]2C[C@H]1OO[C@]2(C)/C=C\c1cc(C(F)(F)F)nc2cc(C(F)(F)F)ccc12 | 160
O=C(O)c1nc(N2CCCC2)ccc1OCc1ccccc1 | 120 to 122
O=C1OCCC12Sc1ccc(S(=O)(=O)N3CCCCC3)cc1C2=O (stereo not given) | 159 to 161
N#Cc1cscc1C#N | 170 to 171
COc1cccc(CC(=O)O)c1OCc1cc(OC(C)C)nn1Cc1ccc(Cl)cc1Cl | 127 to 128
O=C(Nc1ccc(Cl)nc1)N1CCc2ccccc2CC1 | 170 to 172

SMILES | melting point [°C]
CN(C)CCCNC(=O)c1ccc(-c2nnc(CSCCCOc3ccccc3)o2)cc1 | 77 to 80
N=C(N)Nc1nc(-c2cccc(N)c2)cs1 | 180 to 182
COCN1NC(=O)N(C)C1c1ccccc1-c1ccc(CBr)cc1 (stereo not given) | 137 to 138
CCCCSc1ccc2[nH]c(=O)oc(=O)c2c1 | 196 to 200
C#Cc1cc(NC(=O)c2cnn(-c3ccc(Cl)cc3)c2C)ccc1N1CCC(N2CCOCC2)CC1 | 203 to 205
CCCCOP(=O)(CCCCC1(C(=O)NCC(F)(F)F)c2ccccc2-c2ccccc21)OCCCC | 71 to 74
O=c1[nH]c2ccc(F)cc2c2cc(CO)nn12 | 295 to 297
CCc1cc(C(=O)c2ccccc2Cl)c(-n2c(CNC(=O)c3cc4ccccc4n3CC(=O)O)nnc2C2CCCCC2)s1 | 159 to 162
O=C(Nc1cccc2c(=O)cc(-c3nnnn3O)oc12)c1ccc(OCCCCc2ccccc2)cc1 | 238 to 240
COc1ccc(C(=O)Cc2c(Cl)cncc2Cl)c2cc(C(=O)N3CCN(C)CC3)oc12 | 160 to 161
COc1ccc(CCN2CCC(=C3c4ccn(C)c4CCn4ncnc43)CC2)cc1 | 139
CNN(NC)C(=S)Oc1cccnc1C(=O)OC | 74 to 75
CC(O)(c1ccc(C#N)cc1)c1cncs1 (stereo not given) | 162 to 164
CCCN(CC)c1cc(C)nc(Oc2c(C)cc(C)cc2C)c1C | 167 to 169
Nc1ccc(-c2noc(-c3cnn4c(C(F)F)cc(-c5ccc(Cl)c(Cl)c5)nc34)n2)cn1 | 279
NC(=O)C1CCCCc2cc3c(nc21)CCCCC3 (stereo not given) | 179
O=C(Oc1ccccc1)Oc1ccccc1C(=O)NC(Oc1ccccc1)C(Cl)(Cl)Cl (stereo not given) | 110 to 111
Nc1ncnc2c1nc(O)n2Cc1ccc(F)cc1 | 270 to 272
N#Cc1cc(C(=O)c2ccccc2)ccc1[N+](=O)[O-] | 117 to 119
Cc1ccc(Cc2cnc(NCCCNc3ncc(Br)cc3C)[nH]c2=O)cn1 | 48 to 51
CCOC(=O)C1=C(COCCNC(=O)N2CCN(C)CC2)NC(C)=C(C(=O)OC)C1c1ccccc1Cl (stereo not given) | 78 to 80
CCOC(=O)Cc1cc(OC)c(OC(C)=O)c(C2(OC(C)=O)C(=O)c3ccccc3C2=O)c1 | 102 to 107
CC1=C(C(=O)OC(C)C)C(c2cccc([N+](=O)[O-])c2)C(S(=O)(=O)N(C)C)=C(C)N1 (stereo not given) | 136 to 138
CN1CCC(c2c[nH]c3ccc(NC(=O)c4ccc(C#N)cc4)nc23)CC1 | 129 to 134
C[C@@H](NC(=NC#N)Nc1ccc(C#N)cc1)C(C)(C)C | 159 to 160
